Tests used:
[1] = Solubility of RPL554 salts in saline solutions, water and aqueous buffer solutions at 25° C. (HPLC); type: physicochemical; conditions: 24 hours; for Solubility as RPL554 (mg/ml) in Water: deionised water
Procedure: The behaviour of salts of RPL554 were examined under the following conditions: • Phosphate buffered to pH 3.5 in saline, 0.9% w/w at 25° C. • Acetate buffered to pH 4.5 in saline, 0.9% w/w at 25° C. • Citro-Phosphate buffered to pH 4.5 in saline, 0.9% w/w at 25° C. • Phosphate buffered to pH 6.5 in saline, 0.9% w/w at 25° C. • Saline, 0.7, 0.9 and 1.1% w/w at 25° C. • Deionised water at 25° C.
RPL554 salts and RPL554, ca 50 mg, were suspended in the various aqueous media, 1 ml, with agitation at the specified temperatures for 24 hours. The solids were isolated and dried in vacuo at 45° C. The retained filtrates were examined by HPLC.
Additional RPL554 methane sulfonate salt, ca 50 mg, was charged to the water mixtures at 25° C. and 37.5° C. in order to afford a suspension. In all other cases, suspensions were obtained.
The solubility of the RPL554 was determined by HPLC using a single point calibration and is expressed as RPL554 and not as the salt and are detailed in Table 6 and Table 7 for the various conditions utilised.

[2] = Intrinsic dissolution of compressed tablet, pH 7.0, 37° C. (Sirius inForm); type: physicochemical; conditions: for mass dissolved: before precipitation; for Mass of salt (μg) dissolved after 2 hours, Average / Mass of salt (μg) dissolved after 2 hours, Test 1 / Mass of salt (μg) dissolved after 2 hours, Test 2: pH 7.0, 0.15 M NaCl, 37° C.
Procedure: The dissolution assay (pH-dependent sample dissolution) was investigated using the Sirius inForm.
Dissolution of a compressed tablet of the compound was monitored in a pH 7.0 aqueous dissolution experiment (0.15 M NaCl) at 37° C. using UV-absorption spectroscopy in 2 hour experiments. A tablet with a diameter of 3 mm, requiring approximate weights of 10 mg was compressed under a weight of 100 kg load force. Only one face of the tablet was exposed to the dissolution medium, which contained a 0.01 M acetate/phosphate buffer system to minimise perturbation of the experimental pH from dissolution of the drug.
Stirring of the solution was continuous and at a constant rate of 100 rpm. The absorption data was converted to absolute sample weights using previously determined, pH-dependent, molar extinction coefficients. An appropriate wavelength range was chosen to ensure that spectroscopic data with an absorption value of <1.3 was analysed, avoiding erroneous dissolution results due to saturation of the UV light source.

[3] = Primary particle size analysis by laser light diffraction (Mastersizer 2000); type: physicochemical; conditions: micronised, mean n=3
Procedure: A Mastersizer 2000 fitted with a Scirocco 2000 dry powder dispersion unit (Malvern Instruments Ltd, UK) was used to analyse the primary particle size of the micronised RPL554 and salt variants. The salts (50 mg) were automatically sampled via a vibrating feed control at a feeder rate of 60% and dispersed in compressed air at a pressure of 3 bar.

[4] = Solubility of RPL554 and salts in pMDI propellant systems; type: physicochemical
Procedure: Quantitative assessment of the solubility of RPL554 and salt variants in the propellant systems of selected pMDI formulations (three replicates of each formulation) was performed. pMDIs were directly coupled to an adaptor fitted with a 0.20 μm filter unit connected, in series to a 21 G needle, which was inserted via a rubber septum, into a cooled multi-dose glass vial. A 19 G filter needle was inserted through the septum to aid evaporation of propellant from the vial. Prior to the filtration process the vial was cooled in a mixture of dry ice and acetone to ensure that the pressure within the vial was reduced in order to facilitate collection of the output from the pMDI. Ten consecutive actuations of the pMDI were fired through the filter and collected in the vial. Between actuations the canister was shaken for approximately 10 seconds. The pMDI unit was weighed before and after the filtering procedure. The filtrate was stored at room temperature and allowed to evaporate to dryness.
Samples were recovered by carefully rinsing the inside of the vials with 1 mL of recovery solution before transfer to HPLC vials for analysis. The estimated % of RPL554 solubilised within the canister was calculated from the starting mass of RPL554 within the canisters, which in turn was calculated using the theoretical molecular weight values of the RPL554 free base and salt variants shown in Table 13. The theoretical molecular weight estimates of the salts were provided by Verona.

[5] = RPL554 content and content uniformity of 1% w/w lactose powder blends; type: physicochemical; conditions: for Measured Blend Content (% Theoretical): 1% w/w RPL554 variant: lactose powder blend, expressed as RPL554 base; for **Adjusted RPL554 Content per capsule: per 20 mg capsule of 1% w/w lactose blend, adjusted for measured blend content (% theoretical), as RPL554 base
Procedure: Batches (approximately 5 g) of 1% w/w RPL554 free base or salt variants: lactose blends were prepared. In brief, the RPL554 free base or salt plus a small quantity of lactose was passed through a 38 μm sieve. The sieved material plus the remaining lactose was mixed in a glass mortar prior to transfer to a stainless steel screw cap jar and further mixing (10 minutes at 46 rpm) conducted using a Turbula blender. The composition of the dry powder blend was 0.05 g API and 4.95 g lactose.
In order to determine the content uniformity of the blends, aliquots (approx. 20 mg) of powder were sampled from each blend, accurately weighed, and diluted to volume in 10 mL volumetric flasks with diluent. The flasks were sonicated for 3 minutes before samples were transferred to HPLC vials for analysis.

[6] = Aerosol performance of DPI formulations (Cyclohaler, NGI); type: physicochemical; conditions: for †Measured Mass of 1% w/w Blend Delivered per capsule / ††RPL554 Emitted (μg) per capsule (B): Cyclohaler; for †Measured Mass of 1% w/w Blend Delivered per capsule: 5 capsules containing 20 mg powder blend, mass from weight change of capsule-loaded device; for ††RPL554 Emitted (μg) per capsule (B): NGI, mass determined from HPLC analysis of recovered samples; for ††RPL554 Emitted (μg) per capsule (B) / Calculated RPL554 Content (μg) per capsule (A): as RPL554 base; for Calculated RPL554 Content (μg) per capsule (A): calculated from delivered blend mass and measured blend content
Procedure: Capsules were hand filled with 20 mg of the 1% w/w RPL554 free base or salt variants: lactose blends, i.e. 200 μg salt per capsule, the fill weight of each capsule was recorded. Due to differences in the molecular weights of the RPL554 salt forms, the amount of RPL554 emitted per actuation varied as a function of molecular weight. The formulations were prepared with no adjustment for differences in molecular weight of the salts.
The powders were delivered via the Cyclohaler® DPI (PCH Pharmachemie, BV, The Netherlands). The Cyclohaler® DPI is a low resistance device and was operated at a flow rate of 90 L/min for 2.7 seconds. The cut off diameters for the NGI collection stages were calculated for the 90 L/min flow rate using the NGI User Guide (MSP Corporation, 2008).
The ED, FPD and FPF were determined from inertial impaction tests performed following the deposition of 5 capsules of each formulation into the NGI. For each capsule tested the combined weight of the Cyclohaler® and capsule was determined before and after operation to check that the dose had been delivered. The NGI was fitted with a pre-separator for these determinations. The central cup of the pre-separator was filled with 15 mL of diluent. Following deposition, the solution was recovered in a 20 mL volumetric flask and made up to volume with diluent. RPL554 was quantitatively recovered from the device, induction port and each of the NGI collection stages with 10 mL of diluent.
The volume of diluent used for each sample was selected to ensure RPL554 concentrations were above the limit of quantitation.

[7] = Physico-chemical characteristics of salt candidates: solubility in water, pH of aqueous suspension/solution, form post water maturation
Procedure: The physico-chemical characteristics of the salt candidates were determined.

[8] = listed as methanesulfonate salt
[9] = in HFA 134, BLQ = below limit of quantitation (0.06 μg/mL)
[10] = listed as p-toluenesulfonate salt

COc1cc2c(cc1OC)-c1c/c(=N\c3c(C)cc(C)cc3C)n(CCNC(N)=O)c(=O)n1CC2 [Methanesulfonate, RPL554 methanesulfonate]
Solubility as RPL554 (mg/ml) in 0.7 w/w % Saline [1]: 5.01 mg/mL | Solubility as RPL554 (mg/ml) in 0.9 w/w % Saline [1]: 3.73 mg/mL | Solubility as RPL554 (mg/ml) in 1.1 w/w % Saline [1]: 2.52 mg/mL | Solubility as RPL554 (mg/ml) in Water [1]: 44.52 mg/mL | dissolution compared with free base / other salts ([2]; 2 hour experiments): higher dissolution than the rest of the salts | mass dissolved ([2]; at 8.5 min): 3960 µg | mass dissolved ([2]; at 11 min): 5200 µg | maximum pH change (decrease) during dissolution ([2]; nominal start pH 7): about 0.1 pH units | Mass of salt (μg) dissolved after 2 hours, Average [2, 8]: 225 µg | Mass of salt (μg) dissolved after 2 hours, Test 1 [2, 8]: 160 µg | Mass of salt (μg) dissolved after 2 hours, Test 2 [2, 8]: 290 µg | D (0.1) (μm) [3]: 0.45 μm | D (0.5) (μm) [3]: 1.20 μm | D (0.9) (μm) [3]: 3.46 μm | Calculated RPL554 solubilised (%) ([4]; in HFA 134): BLQ | Calculated Solubilised RPL554 μg per 50 μL actuation ([4]; in HFA 134): BLQ | Solubility RPL554 (μg/g) [4, 9]: BLQ | Estimated RPL554 solubilised (%) ([4]; in HFA 134 with Ethanol/Tween): 11.64% | Estimated Solubilised RPL554 μg per 50 μL actuation ([4]; in HFA 134 with Ethanol/Tween): 19.38 µg | Solubility RPL554 ([4]; in HFA 134 with Ethanol/Tween): 298.07 µg/g | Solubility RPL554 ([4]; in HFA 134 with Ethanol/Tween, listed as methanesulfonate): 298 µg/g | Calculated RPL554 solubilised (%) ([4]; in HFA 227): BLQ | Calculated Solubilised RPL554 μg per 50 μL actuation ([4]; in HFA 227): BLQ | Solubility RPL554 (μg/g) ([4]; in HFA 227): BLQ | Measured Blend Content (% Theoretical) [5]: 99.13 % Theoretical | **Adjusted RPL554 Content per capsule [5]: 165.05 µg | †Measured Mass of 1% w/w Blend Delivered per capsule [6]: 19.96 mg | ††RPL554 Emitted (μg) per capsule (B) [6]: 118.69 µg | Calculated RPL554 Content (μg) per capsule (A) [6]: 164.72 µg | pH of aqueous suspension/solution ([7]; listed as Methane sulfonic): 2.69

COc1cc2c(cc1OC)-c1c/c(=N\c3c(C)cc(C)cc3C)n(CCNC(N)=O)c(=O)n1CC2 [p-Toluenesulfonate, RPL554 p-toluenesulfonate]
Solubility as RPL554 (mg/ml) in 0.7 w/w % Saline [1]: 0.83 mg/mL | Solubility as RPL554 (mg/ml) in 0.9 w/w % Saline [1]: 0.62 mg/mL | Solubility as RPL554 (mg/ml) in 1.1 w/w % Saline [1]: 0.8 mg/mL | Solubility as RPL554 (mg/ml) in Water [1]: 1.01 mg/mL | Mass of salt (μg) dissolved after 2 hours, Average [2, 10]: 61.6 µg | Mass of salt (μg) dissolved after 2 hours, Test 1 [2, 10]: 51.2 µg | Mass of salt (μg) dissolved after 2 hours, Test 2 [2, 10]: 71.9 µg | D (0.1) (μm) [3]: 0.47 μm | D (0.5) (μm) [3]: 1.34 μm | D (0.9) (μm) [3]: 4.53 μm | Calculated RPL554 solubilised (%) ([4]; in HFA 134): 0.08% | Calculated Solubilised RPL554 μg per 50 μL actuation ([4]; in HFA 134): 0.11 µg | Solubility RPL554 [4, 9]: 1.56 µg/g | Solubility RPL554 (μg/g) ([4]; in HFA 134, BLQ = below limit of quantitation (0.06 μg/mL), listed as p-toluensulfonate): quantifiable levels of solubility | Estimated RPL554 solubilised (%) ([4]; in HFA 134 with Ethanol/Tween): 7.20% | Estimated Solubilised RPL554 μg per 50 μL actuation ([4]; in HFA 134 with Ethanol/Tween): 10.58 µg | Solubility RPL554 ([4]; in HFA 134 with Ethanol/Tween): 152.85 µg/g | Calculated RPL554 solubilised (%) ([4]; in HFA 227): BLQ | Calculated Solubilised RPL554 μg per 50 μL actuation ([4]; in HFA 227): BLQ | Solubility RPL554 (μg/g) ([4]; in HFA 227): BLQ | Measured Blend Content (% Theoretical) [5]: 88.66 % Theoretical | **Adjusted RPL554 Content per capsule [5]: 130.33 µg | †Measured Mass of 1% w/w Blend Delivered per capsule [6]: 20.02 mg | ††RPL554 Emitted (μg) per capsule (B) [6]: 86.84 µg | Calculated RPL554 Content (μg) per capsule (A) [6]: 130.46 µg | pH of aqueous suspension/solution ([7]; listed as p-Toluene sulfonic): 3.40

— US11491155B2, “Salt of a pyrimido[6,1-A]isoquinolin-4-one compound” (VERONA PHARMA PLC, priority 2015, dated 2022)
